≈ marks a conversion by molar mass, not a printed value. Where “and” joins values, the source holds several entries; their conditions need not be identical. Equal entries are not always repeated. Where two headings read alike, the source gives them in different places.
Legend:
[1] = tested on: Escherichia coli ATCC 2592; assay: Agar well diffusion, E. coli; format: cell-based; conditions: ATCC2592, 100 μL of 10 mg/mL in DMSO, read-out: diameter of inhibition zone, EC
From the text: (§1) The new molecules were individually tested for their antimicrobial activity in vitro against standard bacteria strains from the American Type Culture Collection (ATCC), namely, Staphylococcus aureus ATCC 29213, Bacillus subtilis ATCC 6633, Bacillus megaterium ATCC 9885 (Gram-positive), Escherichia coli ATCC 2592, and Pseudomonas aeruginosa ATCC 27,953 (Gram-negative). The compounds were also microbiologically tested against locally isolated Saccharomyces cerevisiae (yeast) and the standard Agricultural Research Service Culture Collection (NRRL) strain of the yeast-like pathogenic fungus Candida albicans NRRL Y-477. Primary screening was conducted using the agar well diffusion method using nutrient agar (NA) medium and Sabourand dextrose agar (SDA) medium for the tested pathological bacteria and yeast, respectively. […].
(§2) Antimicrobial tests were conducted via the agar well diffusion method using 100 μL of suspension containing 1 × 10^8 CFU/mL pathological tested bacteria and 1 × 10^6 CFU/mL yeast spread on NA and SDA, respectively. After the media cooled and solidified, wells (10 mm in diameter) were made in the solidified agar and loaded with 100 μL of the tested compound solution prepared by dissolving 10 mg of the chemical compound in 1 mL dimethyl sulfoxide (DMSO). The inoculated plates were then incubated for 24 h at 37 °C for bacteria and yeast growth. DMSO served as negative control. Ciprofloxacin (10 mg/mL) and ketoconazole (10 mg/mL) were used as standards for antibacterial and antifungal activity, respectively. After incubation, antimicrobial activity was evaluated by measuring the zone of inhibition against the test organisms and compared with that of the standard. Antimicrobial activities were expressed as the diameter of the inhibition zone (IZ) in mm. The experiment was carried out in triplicate and the average zone of inhibition was calculated.

COX-1 = target: T1, COX-1 (Homo sapiens, UniProt P23219); assay: COX-1 inhibition, Cayman assay kit; format: biochemical; conditions: mean of two determinations
T1 construct: purchased Cayman Chemical 701070
T1 sequence (P23219 24-599): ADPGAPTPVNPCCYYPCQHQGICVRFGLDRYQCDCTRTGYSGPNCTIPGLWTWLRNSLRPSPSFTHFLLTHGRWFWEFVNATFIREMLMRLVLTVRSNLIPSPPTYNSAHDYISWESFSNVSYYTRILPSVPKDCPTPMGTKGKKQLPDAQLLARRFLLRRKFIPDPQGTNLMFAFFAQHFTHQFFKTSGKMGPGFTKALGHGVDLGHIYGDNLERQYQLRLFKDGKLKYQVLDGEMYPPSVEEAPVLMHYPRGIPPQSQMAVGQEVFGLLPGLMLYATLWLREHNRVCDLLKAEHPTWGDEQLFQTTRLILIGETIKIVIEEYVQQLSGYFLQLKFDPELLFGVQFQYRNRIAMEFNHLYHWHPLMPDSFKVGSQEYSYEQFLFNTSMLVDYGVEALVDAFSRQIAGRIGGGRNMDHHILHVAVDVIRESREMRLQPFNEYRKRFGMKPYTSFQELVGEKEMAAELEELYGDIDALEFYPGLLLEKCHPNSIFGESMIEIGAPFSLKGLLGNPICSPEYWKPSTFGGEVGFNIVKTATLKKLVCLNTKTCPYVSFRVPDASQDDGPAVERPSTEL

trypsin = assay: Proteinase-inhibitory activity; format: biochemical; conditions: 250 µg/mL; mean ± SD (n = 3)
Protocol: The newly synthesised compounds were individually tested for their in vitro anti-inflammatory activity against proteinase enzyme. […] This test was performed at the Pharmacology Department, Medical Research Division, National Research Centre, Cairo, Egypt. Furthermore, compounds 2–8 were evaluated for their COX1/COX2 inhibitory activities.
The test was performed according to El-Serwy et al. with minor modifications. The reaction mixture (2 mL) contained 0.06 mg trypsin, 20 mM Tris HCl buffer (pH 7.4), and 1 mL test sample (250 µg/mL for each compound). After incubating for 5 min, 1 mL of 0.8% (w/v) casein was added. The mixture was incubated for an additional 20 min. The reaction was arrested by adding 1 mL of 10% perchloric acid. The cloudy suspension was centrifuged, and the absorbance of the supernatant was read at 280 nm. Reference standard aspirin was used as the positive control. The experiment was performed in triplicate. The percent inhibition of protein denaturation was calculated using the following Equation (2):(2) % Inhibition=100−A control −A test/A control×100 where Acontrol and Atest represent the absorbance of the control reaction without and with the sample, respectively.

[2] = tested on: Pseudomonas aeruginosa ATCC 27,953; assay: Agar well diffusion, P. aeruginosa; format: cell-based; conditions: ATCC27, 100 μL of 10 mg/mL in DMSO, read-out: diameter of inhibition zone, PA
From the text: as §1, §2

[3] = tested on: Bacillus subtilis ATCC 6633; assay: Agar well diffusion, B. subtilis; format: cell-based; conditions: ATCC6633, 100 μL of 10 mg/mL in DMSO, read-out: diameter of inhibition zone, BS
From the text: as §1, §2

[4] = tested on: Candida albicans NRRL Y-477; assay: Agar well diffusion, C. albicans; format: cell-based; conditions: NRRLY477, 100 μL of 10 mg/mL in DMSO, read-out: diameter of inhibition zone, CA
From the text: as §1, §2

[5] = DPPH antioxidant assay (radical scavenging); format: biochemical; conditions: mean ± SD (n = 3)
Protocol: The antioxidant effects of the synthesised compounds were assessed using the 2,2-diphenyl-1-picrylhydrazyl (DPPH) antioxidant assay. Table 1 summarises the antioxidant effects of the test samples and ascorbic acid except for compound 5b because it was produced in poor yield.
The radical scavenging activity of the synthesised compounds was measured using the DPPH microplate-based method. The absorbance was measured using a microplate/cuvette reader (Spectramax M5, Molecular Devices, San Jose, CA, USA). Reference standard ascorbic acid was utilised as the positive control for this assay. Test samples were prepared at a starting concentration of 200 μg/mL after mixing with 100 μL of 0.2 mM DPPH methanolic solution. […] Samples were incubated with DPPH in the dark for 30 min at room temperature (25 °C). The methanolic DPPH solution was prepared daily and stored in a flask covered with aluminium foil. DPPH radicals have an absorption maximum (λmax) at 515 nm, at which the absorbance values were measured and converted into a percentage of antioxidant activity.
The methanolic DPPH solution without antioxidants was used as a control, and samples in methanol alone served as a background control. IC50 was determined using GraphPad Prism 7 (GraphPad Software Inc., San Diego, CA, USA). The percent inhibition was calculated using the following Equation (1):(1) % Inhibition=100−Sample Absorbance −Sample background Absorbance/DPPH only Absorbance×100
The assay was carried out in triplicate and performed as much as possible in an area protected against light. The data points are presented as the mean ± standard deviation (SD, n = 3).

[6] = tested on: Saccharomyces cerevisiae local isolate; assay: Agar well diffusion, S. cerevisiae; format: cell-based; conditions: read-out: diameter of inhibition zone, SC
From the text: as §1, §2

[7] = tested on: Bacillus megaterium ATCC 9885; assay: Agar well diffusion, B. megaterium; format: cell-based; conditions: Priestia megaterium, ATCC9885, 100 μL of 10 mg/mL in DMSO, read-out: diameter of inhibition zone, BM
From the text: as §1, §2

[8] = tested on: Staphylococcus aureus ATCC 29213; assay: Agar well diffusion, S. aureus; format: cell-based; conditions: ATCC29213, 100 μL of 10 mg/mL in DMSO, read-out: diameter of inhibition zone, SA
From the text: as §1, §2

COX-2 = target: T2, COX-2 (Homo sapiens, UniProt P35354); assay: COX-2 inhibition, Cayman assay kit; format: biochemical; conditions: for IC50: mean of two determinations; for SI, selectivity index (COX-1/COX-2): ratio of COX-1/COX-2 IC50
T2 construct: purchased Cayman Chemical 701080
T2 sequence (P35354 18-604): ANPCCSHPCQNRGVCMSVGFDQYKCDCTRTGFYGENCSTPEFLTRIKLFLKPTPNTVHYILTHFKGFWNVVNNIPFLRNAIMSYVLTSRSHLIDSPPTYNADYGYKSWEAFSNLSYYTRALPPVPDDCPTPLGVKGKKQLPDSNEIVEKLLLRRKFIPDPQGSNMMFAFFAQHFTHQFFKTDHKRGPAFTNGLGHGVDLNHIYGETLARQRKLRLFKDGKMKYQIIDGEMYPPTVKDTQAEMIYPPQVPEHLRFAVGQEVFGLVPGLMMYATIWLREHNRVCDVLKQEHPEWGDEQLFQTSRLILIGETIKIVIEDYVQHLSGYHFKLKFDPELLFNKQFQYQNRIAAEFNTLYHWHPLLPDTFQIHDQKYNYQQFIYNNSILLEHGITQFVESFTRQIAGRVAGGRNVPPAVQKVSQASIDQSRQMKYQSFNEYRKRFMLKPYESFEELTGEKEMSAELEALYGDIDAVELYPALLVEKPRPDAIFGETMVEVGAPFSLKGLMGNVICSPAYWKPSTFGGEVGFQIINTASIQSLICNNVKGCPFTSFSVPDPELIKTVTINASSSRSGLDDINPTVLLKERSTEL

[9] = tested on: Saccharomyces cerevisiae local isolate; assay: MIC, two-fold serial dilution, S. cerevisiae; format: cell-based; conditions: two-fold serial dilution, S. cerevisiae, read-out: Minimum inhibitory concentration, SC
From the text: as §1
(§3) The bacteriostatic activity of the active compounds (having IZ > 16 mm) was then evaluated using the two-fold serial dilution technique. Two-fold serial dilutions of the tested compounds solutions were prepared using the proper nutrient broth to reach final concentrations of 1000, 500, 250, and 125 μg/mL. The tubes were then inoculated with the test microorganisms grown in their suitable broth at 37 °C for 24 h (1 × 10^8 CFU/mL for bacteria and 1 × 10^6 CFU/mL of yeast), 0.1 mL of the above inoculum was administered per 5 mL, and the tubes were incubated at 37 °C for 24 h. The lowest concentration showing no growth was taken as the MIC.

[10] = tested on: Candida albicans NRRL Y-477; assay: MIC, two-fold serial dilution, C. albicans; format: cell-based; conditions: NRRLY477, read-out: Minimum inhibitory concentration, CA
From the text: as §1, §3

[11] = well diffusion, 100 μL of 10 mg/mL in DMSO, S. cerevisiae

Structure (SMILES)	zone of inhibition at 10000 µg/mL [1] [mm]	IC50 (COX-1) [µM]	% Inhibition (proteinase) (trypsin) [%]	zone of inhibition at 10000 µg/mL [2] [mm]	zone of inhibition at 10000 µg/mL [3] [mm]	zone of inhibition at 10000 µg/mL [4] [mm]	IC50 [5]	zone of inhibition at 10000 µg/mL [6] [mm]	zone of inhibition at 10000 µg/mL [7] [mm]	zone of inhibition at 10000 µg/mL [8] [mm]	IC50 (COX-2) [µM]	SI, selectivity index (COX-1/COX-2) (COX-2)	melting point [°C]	zone of inhibition at 10000 µg/mL [6, 11] [mm]	MIC [9] [µg/mL]	MIC [10] [µg/mL]
Cc1ccc2oc(=O)c3c(c2c1)OC(/N=C/N(C)C)=C(C#N)C3c1ccc([N+](=O)[O-])cc1 (racemic) [4a, (±)-N′-(3-cyano-9-methyl-4-(4-nitrophenyl)-5-oxo-4H,5H-pyrano[3,2-c]chromen-2-yl)-N,N-dimethylformimidamide]	< 15	12.5	31.99 ± 2.45	< 15	< 15	< 15	— ((—): inactive (IC50 > 200 μg/mL))	< 15	< 15	16	7.99	1.56	279 to 281			
Cc1ccc2oc(=O)c3c(c2c1)OC(/N=C/N(C)C)=C(C#N)C3c1ccco1 (racemic) [4b, (±)-N′-(3-cyano-4-(furan-2-yl)-9-methyl-5-oxo-4H,5H-pyrano[3,2-c]chromen-2-yl)-N,N-dimethylformimidamide]	15	57.5	33.17 ± 2.79	15	< 15	< 15	— ((—): inactive (IC50 > 200 μg/mL))	< 15	< 15	16	25.2	2.28	273 to 275			
Cc1ccc2oc(=O)c3c(c2c1)OC(/N=C/c1ccccc1)=C(C#N)C3c1ccco1 (racemic) [5b, (±)-2-(benzylideneamino)-4-(furan-2-yl)-9-methyl-5-oxo-4H,5H-pyrano[3,2-c]chromene-3-carbonitrile]		215									19.6	10.9 and 10.97	250 to 252			
CC(=O)c1ccc(NS(=O)(=O)c2c(O)c3cc(Cl)ccc3oc2=O)cc1 [8e, N-(4-acetylphenyl)-6-chloro-4-hydroxy-2-oxo-2H-chromene-3-sulfonamide]	< 15	19.9	18.5 ± 3.47	< 15	15	< 15	32.85 ± 1.322 µg/mL (≈ 83.4 µM)		16	< 15	9.22	2.2 and 2.16	238 to 240	< 15		
CC(=O)c1ccc(NS(=O)(=O)c2c(O)c3cc(C)ccc3oc2=O)cc1 [8f, N-(4-acetylphenyl)-4-hydroxy-6-methyl-2-oxo-2H-chromene-3-sulfonamide]	< 15	7.92	2.0 ± 1.4	< 15	15	< 15	35.36 ± 3.265 µg/mL (≈ 94.7 µM)		15	16	25.7	0.3 and 0.31	231 to 232	< 15		
O=C1O[C@H]([C@@H](O)CO)C(O)=C1O [Ascorbic acid, reference compound]							2.83 ± 0.166 µg/mL (≈ 16.1 µM)									
CC(=O)Oc1ccccc1C(=O)O [Aspirin, reference compound]			45.83 ± 4.21													
CC(=O)N1CCN(c2ccc(OCC3COC(Cn4ccnc4)(c4ccc(Cl)cc4Cl)O3)cc2)CC1 (stereo not shown) [Ketoconazole, reference compound]	< 15			< 15	< 15	28			< 15	< 15				30	125 (≈ 235 µM)	125 (≈ 235 µM)
